Experimental data reported in ChEMBL document CHEMBL1155894, “Novel analogues of istaroxime, a potent inhibitor of Na+,K+-ATPase: synthesis and structure-activity relationship” (J Med Chem, 2008).
pIC50: −log10 of the molar value.

Columns and labels:
[1] = Inhibition of dog kidney Na+,K+-ATPase by [32P]ATP hydrolysis method; parameters: species or system Canis lupus familiaris
[2] = system: Cavia porcellus; assay: […] effect in anesthetized guinea pig assessed as drug level inducing maximun increase in dP/dtmax response relative to control; format: functional
[3] = system: Cavia porcellus; assay: […] effect in anesthetized guinea pig assessed as increase in dP/dtmax response relative to control; format: functional
[4] = system: Cavia porcellus; assay: […] effect in anesthetized guinea pig assessed as drug level inducing increase in dP/dtmax response; format: functional
[5] = species on record: Cavia porcellus; assay: Toxicity in guinea pig assessed as induction of death; format: organism-based; details: in vivo
[6] = species on record: Cavia porcellus; assay: Ratio of toxic lethal dose to ED80 for inotropic activity in guinea pig; format: functional

Compound C[C@H]1O[C@@H](O[C@H]2[C@@H](O)C[C@H](O[C@H]3[C@@H](O)C[C@H](O[C@H]4CC[C@@]5(C)[C@H](CC[C@@H]6[C@@H]5C[C@@H](O)[C@]5(C)[C@@H](C7=CC(=O)OC7)CC[C@]65O)C4)O[C@@H]3C)O[C@@H]2C)C[C@H](O)[C@@H]1O [DIGOXIN] has a pIC50 [1] of 6.66, an Activity [2] of 0.97 µmol/kg and an Emax [3] of 127%. For the same compound, the ED80 [4] was 0.41 µmol/kg, the Activity [5] was “Toxic” and the Ratio [6] was 3.2.

In the case of C[C@H](N)CO/N=C1/CC[C@@]2(C)[C@H](C1)C(=O)C[C@@H]1[C@@H]2CC[C@]2(C)C(=O)CC[C@@H]12, the pIC50 [1] was 6.43.

In the case of CN1CC[C@@H](O/N=C2/CC[C@@]3(C)[C@H](C2)C(=O)C[C@@H]2[C@@H]3CC[C@]3(C)C(=O)CC[C@@H]23)C1, the pIC50 [1] was 5.89.

In the case of C[C@]12CC/C(=N/O[C@H]3CCNC3)C[C@@H]1C(=O)C[C@@H]1[C@@H]2CC[C@]2(C)C(=O)CC[C@@H]12, the pIC50 [1] was 6.62.

C[C@]12CC/C(=N/O[C@H]3CCNC3)C[C@@H]1[C@@H](O)C[C@@H]1[C@@H]2CC[C@]2(C)C(=O)CC[C@@H]12 showed a pIC50 [1] of 6.04.

In the case of CCCON=C1CC[C@@]2(C)[C@H](C1)C(=O)C[C@@H]1[C@@H]2CC[C@]2(C)C(=O)CC[C@@H]12, the pIC50 [1] was 7.25, the Activity [2] was 6.79 µmol/kg and the Emax [3] was 260%. For the same compound, the ED80 [4] was 1.03 µmol/kg, the Activity [5] was “Toxic” and the Ratio [6] was 20.8.

Compound C[C@]12CC/C(=N\OC3CCNCC3)C[C@@H]1C(=O)C[C@@H]1[C@@H]2CC[C@]2(C)C(=O)CC[C@@H]12 has a pIC50 [1] of 5.96.

CC12CCC3C(CC(=O)C4CC(=NOCCN)CCC43C)C1CCC2=O (configuration not stated) gave a pIC50 [1] of 6.96, an Activity [2] of 5.74 µmol/kg and an Emax [3] of 182%. For the same compound, the ED80 [4] was 1.82 µmol/kg and the Ratio [6] was 25.6.

Work on C[C@]12CC/C(=N/O[C@@H]3CCNC3)C[C@@H]1[C@@H](O)C[C@@H]1[C@@H]2CC[C@]2(C)C(=O)CC[C@@H]12 yielded a pIC50 [1] of 6.66, an Activity [2] of 9.62 µmol/kg and an Emax [3] of 216%. It also gave an ED80 [4] of 1.64 µmol/kg and a Ratio [6] of 21.

Compound C[C@]12CC/C(=N/O[C@@H]3CCNC3)C[C@@H]1[C@H](O)C[C@@H]1[C@@H]2CC[C@]2(C)C(=O)CC[C@@H]12 has a pIC50 [1] of 6.07, an Activity [2] of 44.8 µmol/kg and an Emax [3] of 256%. For the same compound, the ED80 [4] was 3.92 µmol/kg, the Activity [5] was “Toxic” and the Ratio [6] was 49.1.

In the case of C[C@]12CC/C(=N/OC3CNC3)C[C@@H]1C(=O)C[C@@H]1[C@@H]2CC[C@]2(C)C(=O)CC[C@@H]12, the pIC50 [1] was 7.00.

CNCCCO/N=C1/CC[C@@]2(C)[C@H](C1)C(O)C[C@@H]1[C@@H]2CC[C@]2(C)C(=O)CC[C@@H]12 (some centres not stated) showed a pIC50 [1] of 6.04, an Activity [2] of 8.95 µmol/kg and an Emax [3] of 77%. The Activity [5] was “Toxic” and the Ratio [6] was under 17.

With C[C@]12CC/C(=N\OC[C@@H]3CCCN3)C[C@@H]1C(=O)C[C@@H]1[C@@H]2CC[C@]2(C)C(=O)CC[C@@H]12 the pIC50 [1] was 4.96.

Work on CN1CC[C@H](O/N=C2/CC[C@@]3(C)[C@H](C2)C(=O)C[C@@H]2[C@@H]3CC[C@]3(C)C(=O)CC[C@@H]23)C1 yielded a pIC50 [1] of 4.39.

For C[C@]12CC/C(=N/OCCN)C[C@@H]1C(=O)C[C@@H]1[C@@H]2CC[C@]2(C)C(=O)CC[C@@H]12, the pIC50 [1] was 6.20, the Activity [2] was 12.1 µmol/kg and the Emax [3] was 235%. The ED80 [4] was 3.36 µmol/kg and the Ratio [6] was 22.5.

C[C@]12CC/C(=N\O[C@@H]3CCNC3)C[C@@H]1C(=O)C[C@@H]1[C@@H]2CC[C@]2(C)C(=O)CC[C@@H]12 gave a pIC50 [1] of 7.80, an Activity [2] of 2.65 µmol/kg and an Emax [3] of 186%. For the same compound, the ED80 [4] was 0.75 µmol/kg, the Activity [5] was “Toxic” and the Ratio [6] was 8.

Work on C[C@]12CC/C(=N/O[C@@H]3CCNC3)C[C@@H]1C(=O)C[C@@H]1[C@@H]2CC[C@]2(C)C(=O)CC[C@@H]12 yielded a pIC50 [1] of 6.60, an Activity [2] of 43.5 µmol/kg and an Emax [3] of 114%. The ED80 [4] was 27.7 µmol/kg, the Activity [5] was “Non-toxic” and the Ratio [6] was over 3.6.

CNCCO/N=C1/CC[C@@]2(C)[C@H](C1)C(=O)C[C@@H]1[C@@H]2CC[C@]2(C)C(=O)CC[C@@H]12 gave a pIC50 [1] of 6.16.

In the case of CC(C)(N)CO/N=C1/CC[C@@]2(C)[C@H](C1)C(=O)C[C@@H]1[C@@H]2CC[C@]2(C)C(=O)CC[C@@H]12, the pIC50 [1] was 4.55.

Compound CNCCCO/N=C1/CC[C@@]2(C)[C@H](C1)C(=O)C[C@@H]1[C@@H]2CC[C@]2(C)C(=O)CC[C@@H]12 has a pIC50 [1] of 6.64.

For C[C@]12CC/C(=N/OCCCCN)C[C@@H]1C(=O)C[C@@H]1[C@@H]2CC[C@]2(C)C(=O)CC[C@@H]12, the pIC50 [1] was 5.74.

Compound C[C@]12CCC(=NO[C@@H]3CCNC3)C[C@@H]1C(=O)C[C@@H]1[C@@H]2CC[C@]2(C)C(=O)CC[C@@H]12 has a pIC50 [1] of 7.59, an Activity [2] of 8.09 µmol/kg and an Emax [3] of 223%. For the same compound, the ED80 [4] was 2.01 µmol/kg and the Ratio [6] was 12.

Compound C[C@]12CC/C(=N\OC3CCCNC3)C[C@@H]1C(=O)C[C@@H]1[C@@H]2CC[C@]2(C)C(=O)CC[C@@H]12 (mixture of isomers) has a pIC50 [1] of 4.48.

For CC(C)(CN)O/N=C1/CC[C@@]2(C)[C@H](C1)C(=O)C[C@@H]1[C@@H]2CC[C@]2(C)C(=O)CC[C@@H]12, the pIC50 [1] was 7.68.

Work on C[C@@H](N)CO/N=C1/CC[C@@]2(C)[C@H](C1)C(=O)C[C@@H]1[C@@H]2CC[C@]2(C)C(=O)CC[C@@H]12 yielded a pIC50 [1] of 6.42.

Work on C[C@]12CC/C(=N\OC[C@H]3CCCN3)C[C@@H]1C(=O)C[C@@H]1[C@@H]2CC[C@]2(C)C(=O)CC[C@@H]12 yielded a pIC50 [1] of 4.64.

Compound C[C@]12CC/C(=N/OCCNC(=N)N)C[C@@H]1C(=O)C[C@@H]1[C@@H]2CC[C@]2(C)C(=O)CC[C@@H]12 has a pIC50 [1] of 4.92.
